Legend:
[1] = Stability under a high temperature/humidity condition (HPLC purity after aging); type: physicochemical; details: for Purity after 1 week / Purity after 2 weeks / Purity after 4 weeks / Purity after 8 weeks / Initial purity: HPLC; for Initial purity: before aging
Description: The long-term storage stabilities of anhydrous crystalline forms of docetaxel prepared in Examples 1, 4, 5, and 6, respectively were compared with that of docetaxel trihydrate prepared according to the method of U.S. Pat. No. 6,022,985 by subjecting sample thereof to aging under a high temperature/humidity condition (60±2° C.; 75±5% relative humidity). The amounts of the original compound in each sample after 1, 2, 4 and 8 weeks were determined by high performance liquid chromatography (HPLC).

[2] = Storage for 7 days at 40° C. under a relative humidity of 25% to 50%; type: physicochemical; details: comparable condition: 7 days, relative humidity 25% to 50%
[3] = 60±2° C., 75±5% relative humidity

SMILES	Purity after 1 week [1, 3] [%]	Purity after 2 weeks [1, 3] [%]	Purity after 4 weeks [1, 3] [%]	Purity after 8 weeks [1, 3] [%]	Initial purity [1] [%]	Storage stability under a high temperature/humidity condition (in words) ([1]; 60±2° C., 75±5% relative humidity, up to 8 weeks)	Dehydration during storage [2]
CC(=O)O[C@@]12CO[C@@H]1C[C@H](O)[C@@]1(C)C(=O)[C@H](O)C3=C(C)[C@@H](OC(=O)[C@H](O)[C@@H](NC(=O)OC(C)(C)C)c4ccccc4)C[C@@](O)([C@@H](OC(=O)c4ccccc4)[C@H]21)C3(C)C [Example 4, docetaxel]	99.8	99.7	99.6	99.5	99.8	–	–
CC(=O)O[C@@]12CO[C@@H]1C[C@H](O)[C@@]1(C)C(=O)[C@H](O)C3=C(C)[C@@H](OC(=O)[C@H](O)[C@@H](NC(=O)OC(C)(C)C)c4ccccc4)C[C@@](O)([C@@H](OC(=O)c4ccccc4)[C@H]21)C3(C)C [Example 1, docetaxel]	99.8	99.8	99.7	99.6	99.8	–	–
CC(=O)O[C@@]12CO[C@@H]1C[C@H](O)[C@@]1(C)C(=O)[C@H](O)C3=C(C)[C@@H](OC(=O)[C@H](O)[C@@H](NC(=O)OC(C)(C)C)c4ccccc4)C[C@@](O)([C@@H](OC(=O)c4ccccc4)[C@H]21)C3(C)C [Example 5, docetaxel]	99.7	99.7	99.6	99.6	99.7	–	–
CC(=O)O[C@@]12CO[C@@H]1C[C@H](O)[C@@]1(C)C(=O)[C@H](O)C3=C(C)[C@@H](OC(=O)[C@H](O)[C@@H](NC(=O)OC(C)(C)C)c4ccccc4)C[C@@](O)([C@@H](OC(=O)c4ccccc4)[C@H]21)C3(C)C [Docetaxel trihydrate, docetaxel trihydrate, reference compound]	99.3	99.0	98.7	–	99.4	rapid degradation	at least 50%
CC(=O)O[C@@]12CO[C@@H]1C[C@H](O)[C@@]1(C)C(=O)[C@H](O)C3=C(C)[C@@H](OC(=O)[C@H](O)[C@@H](NC(=O)OC(C)(C)C)c4ccccc4)C[C@@](O)([C@@H](OC(=O)c4ccccc4)[C@H]21)C3(C)C [Example 6, docetaxel]	99.7	99.7	99.6	99.5	99.7	–	–
